In US20250230165A1, “HETEROCYCLIC COMPOUNDS FOR USE IN THE TREATMENT OF CANCER” (ARTIOS PHARMA LIMITED, priority 2021, published 2025):

What follows are compounds tested against T1, Human Polθ polymerase domain (aa1820-2590) (Homo sapiens, UniProt O75417) (assay: Polθ Polymerase Domain Kinact/KI Assay (PicoGreen)). Details: 0.8 nM Polθ, 100 nM DNA substrate, kobs vs [I] fit for 2-step covalent inhibitor.
T1 construct: Human Polθ polymerase domain (aa1820-2590) was expressed in E. coli; made in house; host or cells: E. coli
T1 sequence (O75417 1820-2590): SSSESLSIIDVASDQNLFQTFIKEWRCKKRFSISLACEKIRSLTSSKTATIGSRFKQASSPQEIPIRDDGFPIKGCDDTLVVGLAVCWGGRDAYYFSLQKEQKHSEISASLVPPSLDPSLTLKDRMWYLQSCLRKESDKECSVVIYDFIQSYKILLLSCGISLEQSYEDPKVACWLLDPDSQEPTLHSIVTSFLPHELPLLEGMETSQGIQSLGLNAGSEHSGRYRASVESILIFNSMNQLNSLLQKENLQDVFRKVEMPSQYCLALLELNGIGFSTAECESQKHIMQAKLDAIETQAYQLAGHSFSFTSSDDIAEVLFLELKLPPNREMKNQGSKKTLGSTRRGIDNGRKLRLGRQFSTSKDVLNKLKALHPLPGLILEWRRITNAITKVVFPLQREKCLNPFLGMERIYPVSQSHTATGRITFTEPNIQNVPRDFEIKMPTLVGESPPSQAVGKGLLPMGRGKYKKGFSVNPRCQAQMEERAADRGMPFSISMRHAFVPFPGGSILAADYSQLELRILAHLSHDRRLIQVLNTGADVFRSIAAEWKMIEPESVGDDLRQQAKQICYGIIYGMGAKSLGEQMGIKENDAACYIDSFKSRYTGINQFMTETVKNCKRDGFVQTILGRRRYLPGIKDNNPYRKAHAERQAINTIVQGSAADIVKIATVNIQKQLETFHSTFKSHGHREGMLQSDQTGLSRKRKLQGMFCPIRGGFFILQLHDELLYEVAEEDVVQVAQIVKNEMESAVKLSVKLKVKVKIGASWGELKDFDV
Type: biochemical
Procedure, shortened: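 Covalent Kinact/KI by PicoGreen DNA synthesis readout: E. coli-expressed Polθ polymerase domain (0.8 nM), 100 nM annealed DNA substrate, […], Tris pH 7.5 buffer with DTT, 1% DMSO; EDTA-stopped over 0–60 min time course. kobs from progress curves, then kobs vs [I] fit to two-step covalent model.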

| Kinact/Kl [M⁻¹ s⁻¹] | Compound |
| --- | --- |
| 280000 | Cc1cc(C(F)(F)F)cc(N2C(=O)C[C@@H]3CN(Cc4ccc5c(c4)OCCN5C(=O)/C=C/CN(C)C)c4c(Cl)cccc4N(C)C(=O)[C@H]32)n1 [Example 308, (3aR,11aS)-6-chloro-5-((4-((E)-4-(dimethylamino)but-2-enoyl)-3,4-dihydro-2H-benzo[b][1,4]oxazin-7-yl)methyl)-10-methyl-1-(6-methyl-4-(trifluoromethyl)pyridin-2-yl)-1,3a,4,5,10,11a-hexahydro-2H-benzo[b]pyrrolo[2,3-f][1,4]diazocine-2,11(3H)-dione] |
| 1.02e+06 | Cc1cc(C(F)(F)F)cc(N2C(=O)C[C@@H]3CN(Cc4cc(F)c(NC(=O)/C=C/CN(C)C)c(F)c4)c4c(Cl)cccc4N(C)C(=O)[C@H]32)n1 [Example 309, (E)-N-(4-(((3aR,11aS)-6-chloro-10-methyl-1-(6-methyl-4-(trifluoromethyl)pyridin-2-yl)-2,11-dioxo-1,2,3,3a,4,10,11,11a-octahydro-5H-benzo[b]pyrrolo[2,3-f][1,4]diazocin-5-yl)methyl)-2,6-difluorophenyl)-4-(dimethylamino)but-2-enamide] |
| 1.85e+06 | C=CC(=O)N1Cc2cc(CN3C[C@H]4CC(=O)N(c5cc(C(F)(F)F)cc(C)n5)[C@@H]4C(=O)N(C)c4cccc(C)c43)cnc2C1 [Example 312, (3aR,11aS)-5-((6-acryloyl-6,7-dihydro-5H-pyr-rolo[3,4-b]pyridin-3-yl)methyl)-6,10-dimethyl-1-(6-methyl-4-(trifluoro-methyl)pyridin-2-yl)-1,3a,4,5,10, 11a-hexahydro-2H-benzo[b]pyrrolo [2,3-f][1,4]diazo-cine-2,11(3H)-dione] |
| 660000 | C=CC(=O)N1Cc2ccc(CN3C[C@H]4CC(=O)N(c5cc(C(F)(F)F)cc(C)n5)[C@@H]4C(=O)N(C)c4cccc(C)c43)cc2C1 [Example 313, (3aR,11aS)-5-((2-acryloylisoindolin-5-yl)methyl)-6,10-dimethyl-1-(6-meth-yl-4-(trifluorometh-yl)pyridin-2-yl)-1,3a,4,5,10,11a-hexahydro-2H-benzo [b]pyrrolo[2,3-f] [1,4]diazocine-2,11(3H)-dione] |
| 1.74e+06 | C=CC(=O)N1Cc2nc(CN3C[C@H]4CC(=O)N(c5cc(C(F)(F)F)cc(C)n5)[C@@H]4C(=O)N(C)c4cccc(C)c43)n(CC)c2C1 [Example 314, (3aR,11aS)-5-((5-acryloyl-1-ethyl-1,4,5,6-tetrahydro-pyrrolo[3,4-d]imid-azol-2-yl)methyl)-6,10-dimethyl-1-(6-methyl-4-(trifluoro-methyl)pyridin-2-yl)-1,3a,4,5,10,11a-hexahydro-2H-benzo[b]pyrrolo [2,3-f][1,4]diazo-cine-2,11(3H)-dione] |
| 1.79e+06 | C=CC(=O)N1Cc2nc(CN3C[C@H]4CC(=O)N(c5cc(C(F)(F)F)cc(C)n5)[C@@H]4C(=O)N(C)c4cccc(C)c43)sc2C1 [Example 315, (3aR,11aS)-5-((5-acryloyl-5,6-di-hydro-4H-pyrrolo [3,4-d]thiazol-2-yl)-methyl)-6,10-dimeth-yl-1-(6-methyl-4-(trifluoromethyl)-pyridin-2-yl)-1,3a,4,5,10,11a-hexahydro-2H-benzo[b]pyrrolo [2,3-f][1,4]diazocine-2,11(3H)-dione] |
| 610000 | C=CC(=O)N1Cc2nc(CN3C[C@H]4CC(=O)N(c5cc(C(F)(F)F)cc(C)n5)[C@@H]4C(=O)N(C)c4cccc(C)c43)oc2C1 [Example 316, (3aR,11aS)-5-((5-acryloyl-5,6-di-hydro-4H-pyrrolo [3,4-d]oxazol-2-yl)-methyl)-6,10-dimethyl-1-(6-meth-yl-4-(trifluorometh-yl)pyridin-2-yl)-1,3a,4,5,10,11a-hexahydro-2H-benzo[b]pyrrolo [2,3-f][1,4]diazo-cine-2,11(3H)-dione] |
| 230000 | C=CC(=O)N1Cc2c(CN3C[C@H]4CC(=O)N(c5cc(C(F)(F)F)cc(C)n5)[C@@H]4C(=O)N(C)c4cccc(C)c43)nn(C)c2C1 [Example 317, (3aR,11aS)-5-((5-acryloyl-1-methyl-1,4,5,6-tetrahydro-pyrrolo[3,4-c]pyr-azol-3-yl)methyl)-6,10-dimethyl-1-(6-methyl-4-(trifluoro-methyl)pyridin-2-yl)-1,3a,4,5,10,11a-hexahydro-2H-benzo[b]pyrrolo [2,3-f][1,4]diazo-cine-2,11(3H)-dione] |
| 3.64e+06 | C=C(CN(C)C)C(=O)N1CC(CCCN2C[C@H]3CC(=O)N(c4cc(C(F)(F)F)cc(C)n4)[C@@H]3C(=O)N(C)c3cccc(C)c32)C1 [Example 327, (3aR,11aS)-5-(3-(1-(2-((dimethylamino)-methyl)acryloyl)-azetidin-3-yl)propyl)-6,10-dimethyl-1-(6-methyl-4-(trifluoro-methyl)pyridin-2-yl)-1,3a,4,5,10,11a-hexa-hydro-2H-benzo[b] pyrrolo[2,3-f][1,4] diazocine-2,11(3H)-dione] |
| 4.11e+06 | C=C(CN(C)C)C(=O)N1CC2(CC(CN3C[C@H]4CC(=O)N(c5cc(C(F)(F)F)cc(C)n5)[C@@H]4C(=O)N(C)c4cccc(C)c43)C2)C1 [Example 328, (3aR,11aS)-5-((2-(2-((dimethylamino)-methyl)acryloyl)-2-azaspiro[3.3]heptan-6-yl)methyl)-6,10-dimethyl-1-(6-meth-yl-4-(trifluorometh-yl)pyridin-2-yl)-1,3a, 4,5,10,11a-hexa-hydro-2H-benzo[b] pyrrolo[2,3-f][1,4] diazocine-2,11(3H)-dione] |
| 1.85e+06 | Cc1cc(C(F)(F)F)cc(N2C(=O)C[C@@H]3CN(C[C@H]4C[C@H](NC(=O)/C=C/CN(C)C)C4)c4c(C)cccc4N(C)C(=O)[C@H]32)n1 [Example 331, (E)-N-((1R,3r)-3-(((3aR,11aS)-6,10-dimethyl-1-(6-meth-yl-4-(trifluorometh-yl)pyridin-2-yl)-2,11-dioxo-1,2,3,3a, 4,10,11,11a-octa-hydro-5H-benzo[b]pyrrolo[2,3-f][1,4]diazocin-5-yl)meth-yl)cyclobutyl)-4-(dimethylamino)but-2-enamide] |
| 1.3e+06 | Cc1cc(C(F)(F)F)cc(N2C(=O)C[C@@H]3CN(C[C@H]4C[C@@H](NC(=O)/C=C/CN(C)C)C4)c4c(C)cccc4N(C)C(=O)[C@H]32)n1 [Example 332, (E)-N-((1S,3s)-3-(((3aR,11aS)-6,10-dimethyl-1-(6-methyl-4-(trifluoromethyl)-pyridin-2-yl)-2,11-dioxo-1,2,3,3a,4,10, 11,11a-octahydro-5H-benzo[b]pyrrolo [2,3-f][1,4]diazocin-5-yl)methyl)cyclo-butyl)-4-(dimethyl-amino)but-2-enamide] |
| 420000 | (3aR,11aS)-5-(2-((3R/S,9aS/R)-8-acryloyl-3-methyl-4-oxooctahydro-2H-pyrazino[1,2-a]pyrazin-2-yl)ethyl)-6-fluoro-10-methyl-1-(6-methyl-4-(trifluoromethyl)pyridin-2-yl)-1,3a,4,5,10,11a-hexahydro-2H-benzo[b]pyrrolo[2,3-f][1,4]diazocine-2,11(3H)-dione [Example 107] |

| Compound | Kinact/Kl [M⁻¹ s⁻¹] |
| --- | --- |
| (3aR,11aS)-5-(2-((3S/R,9aS/R)-8-acryloyl-3-methyl-4-oxooctahydro-2H-pyrazino[1,2-a]pyrazin-2-yl)ethyl)-6-fluoro-10-methyl-1-(6-methyl-4-(trifluoromethyl)pyridin-2-yl) 1,3a,4,5,10,11a-hexahydro-2H-benzo[b]pyrrolo[2,3-f][1,4]diazocine-2,11(3H)-dione [Example 110] | 1e+06 |
